Each block holds one compound with its values, some of them ahead of it. Peptide text beside a SMILES is read from it.
How the values were obtained:
[1] = molecular target: T1, DPP-IV (Homo sapiens, UniProt P27487); experiment: DPP-IV inhibitor screening kit (fluorescence); format: biochemical; settings: mean ± SD, n = 3
T1 construct: purchased Elabscience Biotechnology Co., Ltd. E-BC-D007
Protocol: The hypoglycemic active peptides were synthesized via solid-phase synthesis by Shanghai science peptide Co., Ltd. (Shanghai, China). The purity and molecular weight of the synthesized peptides were confirmed using HPLC-MS. The α-glucosidase inhibitory activity was assessed a modified version of previously reported methods by adding 100 μL of p-NPG (1 mM) after 50 μL of peptide solution (0.125–2.0 mg/mL), and 50 μL of α-glucosidase (1 u/mL) were incubated at 37 °C for 15 min. Absorbance was measured at 405 nm after the reaction was stopped by adding 100 μL of […] after another 30 min of incubation. Similarly, α-amylase inhibitory activity was determined based on established protocols with minor modifications. Briefly, 100 μL of peptide solution (0.125–2.0 mg/mL) was mixed with 100 μL of α-amylase (1 U/mL) and incubated at 37 °C for 10 min. Then, 200 μL of pretreated soluble starch solution (2%, denatured at 95 °C for 8 min) was added, and the mixture was further incubated at 37 °C for 20 min. The reaction was stopped by adding 200 μL of DNS reagent (1% DNS; 12% sodium potassium tartrate in 0.4 M Na2CO3), followed by boiling at 100 °C for 15 min. After cooling, 200 μL of each reaction mixture was transferred to a 96-well plate, and absorbance was measured at 540 nm. DPP-IV inhibitory activity was evaluated using a DPP-IV inhibitor screening kit (Elabscience) following the manufacturer’s instructions with slight modifications. Peptide solutions were prepared at gradient concentrations (0.125, 0.25, 0.5, 1, 1.5, 2, 4, and 10 mg/mL). In a 96-well plate, 20 μL of enzyme solution and 30 μL of peptide sample were added to each well, mixed briefly, and incubated at 37 °C for 10 min. Then, 170 μL of reaction working solution was added, followed by a second incubation at 37 °C for 30 min. Fluorescence intensity was measured at an excitation wavelength of 360 nm and an emission wavelength of 460 nm. The IC50 values were determined by fitting dose–response curves using nonlinear regression analysis with a variable slope in GraphPad Prism 9. All IC50 results are expressed as mean ± SD based on three independent experiments.

[2] = molecular target: T2, α-amylase (Sus scrofa, UniProt P00690); settings: literature value; cited from earlier work
T2 sequence (P00690 16-511): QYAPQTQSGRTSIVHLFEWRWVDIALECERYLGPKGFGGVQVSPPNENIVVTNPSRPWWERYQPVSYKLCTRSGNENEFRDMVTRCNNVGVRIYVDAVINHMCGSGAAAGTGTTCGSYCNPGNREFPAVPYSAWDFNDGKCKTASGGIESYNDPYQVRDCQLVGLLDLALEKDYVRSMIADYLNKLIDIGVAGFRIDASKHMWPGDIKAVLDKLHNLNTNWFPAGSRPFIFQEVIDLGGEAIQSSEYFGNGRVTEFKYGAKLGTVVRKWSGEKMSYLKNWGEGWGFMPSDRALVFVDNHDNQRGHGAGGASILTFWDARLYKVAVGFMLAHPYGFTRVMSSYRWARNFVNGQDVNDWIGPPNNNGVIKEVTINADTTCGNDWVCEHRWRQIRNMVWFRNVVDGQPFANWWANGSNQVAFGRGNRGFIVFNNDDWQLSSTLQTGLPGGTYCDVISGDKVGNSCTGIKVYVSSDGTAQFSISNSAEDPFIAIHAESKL

[3] = test system: IR-HepG2 cells; experiment: Intracellular glycogen content in IR-HepG2 cells; format: cell-based; settings: GR-5, SA-6, VF-6 at 2 mmol/L, IR-7 at 1 mmol/L
Protocol: (§1) The IR-HepG2 cellular model was established as described in Section 3.6. […] Cell viability was evaluated in all groups to determine appropriate peptide concentrations and incubation times based on the criteria of non-cytotoxicity and maximal glucose consumption.
(§2) Glucose consumption was measured using a commercial glucose assay kit according to the manufacturer’s protocol. Intracellular glycogen content was quantified with a glycogen detection kit, while hexokinase (HK) and pyruvate kinase (PK) enzyme activities were determined using specific assay kits, following the provided instructions.

[4] = test system: IR-HepG2 cells; experiment: Glucose consumption in IR-HepG2 cells; format: cell-based; settings: 2 mmol/L, IR-HepG2, compared to baseline, positive control
Protocol: HepG2 cells were maintained in Dulbecco’s Modified Eagle Medium (DMEM) supplemented with 10% fetal bovine serum and 1% penicillin–streptomycin under controlled conditions at 37 °C in a humidified atmosphere containing 5% CO2 for 24 h.
as §1, §2

[5] = test system: hexokinase (HK) in IR-HepG2 cells; experiment: Hexokinase activity in IR-HepG2 cells; format: cell-based; settings: IR-HepG2, vs model control; GR-5, SA-6, VF-6 at 2 mmol/L, IR-7 at 1 mmol/L
Protocol: as §1, §2

[6] = test system: pyruvate kinase (PK) in IR-HepG2 cells; experiment: Pyruvate kinase activity in IR-HepG2 cells; format: cell-based; settings: IR-HepG2, vs model control; GR-5, SA-6, VF-6 at 2 mmol/L, IR-7 at 1 mmol/L
Protocol: as §1, §2

T1 sequence (P27487 whole entry, species assumed): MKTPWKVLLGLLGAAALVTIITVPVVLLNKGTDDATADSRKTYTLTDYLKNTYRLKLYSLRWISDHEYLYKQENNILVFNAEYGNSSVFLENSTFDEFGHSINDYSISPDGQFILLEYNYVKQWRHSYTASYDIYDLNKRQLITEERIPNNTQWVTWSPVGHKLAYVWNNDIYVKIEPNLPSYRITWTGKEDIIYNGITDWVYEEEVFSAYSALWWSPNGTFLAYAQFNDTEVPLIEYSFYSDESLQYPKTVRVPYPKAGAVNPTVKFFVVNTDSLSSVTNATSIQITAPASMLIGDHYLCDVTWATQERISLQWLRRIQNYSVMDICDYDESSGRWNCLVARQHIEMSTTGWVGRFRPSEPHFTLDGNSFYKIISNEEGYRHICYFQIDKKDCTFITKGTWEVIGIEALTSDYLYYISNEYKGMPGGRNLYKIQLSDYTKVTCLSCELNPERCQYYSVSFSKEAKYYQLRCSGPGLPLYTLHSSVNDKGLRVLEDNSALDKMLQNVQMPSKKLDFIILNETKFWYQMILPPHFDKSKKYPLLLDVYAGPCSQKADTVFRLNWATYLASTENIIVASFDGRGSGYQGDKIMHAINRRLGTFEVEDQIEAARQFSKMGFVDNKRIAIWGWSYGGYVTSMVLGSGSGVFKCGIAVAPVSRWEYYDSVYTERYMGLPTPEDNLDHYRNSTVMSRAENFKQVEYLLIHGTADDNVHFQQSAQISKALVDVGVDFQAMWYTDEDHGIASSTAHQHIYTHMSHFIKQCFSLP

Compound: GPPMPPPPLP
α-amylase IC50 [2]: 2020 ± 200 µg/mL

Compound: CN(C)C(=N)N=C(N)N [metformin]
increase in glycogen content [3]: 24.2%
increase in glucose consumption [4]: 105%
increase in HK activity [5]: 54.9%
increase in PK activity [6]: 21.1%

Compound: FPSPPLVA
α-amylase IC50 [2]: 920 ± 270 µg/mL

Continued, values first:

IC50 [1]: 1.04 mM
Compound: CC[C@H](C)[C@H](N)C(=O)N[C@@H](C)C(=O)N[C@@H](CO)C(=O)N[C@@H](Cc1ccc(O)cc1)C(=O)N[C@@H](Cc1ccccc1)C(=O)N[C@@H](CC(=O)O)C(=O)N[C@@H](CCCNC(=N)N)C(=O)O [IR-7, Ile-Ala-Ser-Tyr-Phe-Asp-Arg] (H-IASYFDR-OH; N-terminus and C-terminus assumed)

IC50 [1]: 6.97 mM
Compound: CC(C)C[C@H](NC(=O)[C@H](Cc1ccc(O)cc1)NC(=O)[C@H](Cc1ccc(O)cc1)NC(=O)CN)C(=O)N[C@@H](CCCNC(=N)N)C(=O)O [GR-5, Gly-Tyr-Tyr-Leu-Arg] (H-GYYLR-OH; N-terminus and C-terminus assumed)

IC50 [1]: 1.36 mM
Compound: CC(C)[C@H](N)C(=O)N[C@@H](C)C(=O)N[C@@H](Cc1ccccc1)C(=O)NCC(=O)N[C@@H](CCCNC(=N)N)C(=O)N[C@@H](Cc1ccccc1)C(=O)O [VF-6, Val-Ala-Phe-Gly-Arg-Phe] (H-VAFGRF-OH; N-terminus and C-terminus assumed)

IC50 [1]: 11 mM
Compound: C[C@H](NC(=O)[C@H](CCCNC(=N)N)NC(=O)[C@H](CC(=O)O)NC(=O)[C@H](Cc1ccccc1)NC(=O)[C@H](Cc1ccc(O)cc1)NC(=O)[C@@H](N)CO)C(=O)O [SA-6, Ser-Tyr-Phe-Asp-Arg-Ala] (H-SYFDRA-OH; N-terminus and C-terminus assumed)

Source: PMC12387383, “Screening and Assessment of Hypoglycemic Active Peptide from Natural Edible Pigment Phycobiliprotein Based on Molecular Docking, Network Pharmacology, Enzyme Inhibition Assay Analyses, and Cell Experiments” (Marine Drugs, 2025)
